Legend:
PI3Kα (p110α/p85a) = PI3Kα (p110α/p85a) (Homo sapiens (Human), UniProt P42336); experiment: PI3K biochemical potency assay (PI3Kα)
Protocol: (§1) PI3Kα (p110α/p85a), PIK3C δ, PIK3Cβ (p110β), PIK3Cγ (pp110γ) kinase reaction solutions of PI3Kα (Invitrogen, Cat. No. PV4788), PIK3Cδ (Invitrogen, Cat. No. PV6452), PIK3Cβ (Millipore, Cat. No. 14-603-K), PIK3Cγ (Invitrogen, Cat. No. PR8641C) enzymes were prepared in 1× kinase buffer at 4-fold of the final concentration (final concentration: PI3Kα 0.7 nM, PIK3Cδ 3 nM, PIK3Cβ 4.8 nM, PIK3Cγ 11 nM) of each reagent in the assay. 2.5 μl of kinase solution was added to each well of the 384-well assay plate, which contains 2.5 μl of compounds with serially diluted concentration. 2× substrate solution was prepared with PIP2 substrate and ATP in 1× kinase reaction buffer at 2-fold of the final concentration of each reagent in the assay. 5 μl of substrate solution was added to each well of the assay plate to start reaction. The assay plate was incubated at room temperature for 1 hour. 5 μl reaction mix was transferred to a new 384 well plate. 5 μl of ADP-Glo reagent (Promega, Cat. No. v9102/3, Lot. No. 0000176563) was added to each well of the new assay plate to stop the reaction. The plate was shaken slowly and equilibrated for 40 minutes. 10 μl kinase detection reagents was added to each well, which was equilibrated for 60 minutes before read on a plate reader (Envision) for luminescence.

PIK3Cγ (pp110γ) = PIK3Cγ (pp110γ) (Homo sapiens (Human), UniProt P48736); experiment: PI3K biochemical potency assay (PI3Kγ)
Chain of PIK3Cγ (pp110γ) (P48736 whole entry): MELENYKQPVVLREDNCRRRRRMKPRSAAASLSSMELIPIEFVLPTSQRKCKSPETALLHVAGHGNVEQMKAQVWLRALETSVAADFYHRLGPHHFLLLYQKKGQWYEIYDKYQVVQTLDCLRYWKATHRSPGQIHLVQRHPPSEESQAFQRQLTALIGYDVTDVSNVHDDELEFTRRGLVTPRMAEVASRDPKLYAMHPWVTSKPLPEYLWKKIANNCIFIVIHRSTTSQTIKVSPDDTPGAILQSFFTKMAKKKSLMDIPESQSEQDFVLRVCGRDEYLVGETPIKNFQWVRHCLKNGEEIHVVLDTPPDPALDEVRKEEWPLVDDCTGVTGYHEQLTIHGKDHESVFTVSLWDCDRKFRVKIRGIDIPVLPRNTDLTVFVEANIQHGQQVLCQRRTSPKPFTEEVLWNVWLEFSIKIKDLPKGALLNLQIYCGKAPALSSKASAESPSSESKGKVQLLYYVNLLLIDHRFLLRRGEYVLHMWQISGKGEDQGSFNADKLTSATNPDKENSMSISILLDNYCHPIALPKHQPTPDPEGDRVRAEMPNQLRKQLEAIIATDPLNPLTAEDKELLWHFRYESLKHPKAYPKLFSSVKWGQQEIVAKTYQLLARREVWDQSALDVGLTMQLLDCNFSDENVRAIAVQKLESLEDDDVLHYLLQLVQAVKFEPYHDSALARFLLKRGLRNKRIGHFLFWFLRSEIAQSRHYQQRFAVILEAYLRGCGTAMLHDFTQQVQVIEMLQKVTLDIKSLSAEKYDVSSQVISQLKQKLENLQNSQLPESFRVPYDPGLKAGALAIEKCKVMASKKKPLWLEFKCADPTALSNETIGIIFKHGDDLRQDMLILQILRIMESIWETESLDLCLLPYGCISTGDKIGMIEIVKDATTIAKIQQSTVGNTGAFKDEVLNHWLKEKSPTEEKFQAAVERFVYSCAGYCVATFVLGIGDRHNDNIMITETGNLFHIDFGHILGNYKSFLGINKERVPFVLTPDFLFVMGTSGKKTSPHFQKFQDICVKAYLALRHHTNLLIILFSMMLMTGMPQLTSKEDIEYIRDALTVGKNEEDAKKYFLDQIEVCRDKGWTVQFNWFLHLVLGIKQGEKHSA
Protocol: as §1

[1] = target: ATM in SN38 treated HT-29 cells (Homo sapiens (Human), UniProt Q13315); experiment: ATM SN-38 HT-29 cellular potency assay
Chain of ATM in SN38 treated HT-29 cells (Q13315 whole entry, looked up): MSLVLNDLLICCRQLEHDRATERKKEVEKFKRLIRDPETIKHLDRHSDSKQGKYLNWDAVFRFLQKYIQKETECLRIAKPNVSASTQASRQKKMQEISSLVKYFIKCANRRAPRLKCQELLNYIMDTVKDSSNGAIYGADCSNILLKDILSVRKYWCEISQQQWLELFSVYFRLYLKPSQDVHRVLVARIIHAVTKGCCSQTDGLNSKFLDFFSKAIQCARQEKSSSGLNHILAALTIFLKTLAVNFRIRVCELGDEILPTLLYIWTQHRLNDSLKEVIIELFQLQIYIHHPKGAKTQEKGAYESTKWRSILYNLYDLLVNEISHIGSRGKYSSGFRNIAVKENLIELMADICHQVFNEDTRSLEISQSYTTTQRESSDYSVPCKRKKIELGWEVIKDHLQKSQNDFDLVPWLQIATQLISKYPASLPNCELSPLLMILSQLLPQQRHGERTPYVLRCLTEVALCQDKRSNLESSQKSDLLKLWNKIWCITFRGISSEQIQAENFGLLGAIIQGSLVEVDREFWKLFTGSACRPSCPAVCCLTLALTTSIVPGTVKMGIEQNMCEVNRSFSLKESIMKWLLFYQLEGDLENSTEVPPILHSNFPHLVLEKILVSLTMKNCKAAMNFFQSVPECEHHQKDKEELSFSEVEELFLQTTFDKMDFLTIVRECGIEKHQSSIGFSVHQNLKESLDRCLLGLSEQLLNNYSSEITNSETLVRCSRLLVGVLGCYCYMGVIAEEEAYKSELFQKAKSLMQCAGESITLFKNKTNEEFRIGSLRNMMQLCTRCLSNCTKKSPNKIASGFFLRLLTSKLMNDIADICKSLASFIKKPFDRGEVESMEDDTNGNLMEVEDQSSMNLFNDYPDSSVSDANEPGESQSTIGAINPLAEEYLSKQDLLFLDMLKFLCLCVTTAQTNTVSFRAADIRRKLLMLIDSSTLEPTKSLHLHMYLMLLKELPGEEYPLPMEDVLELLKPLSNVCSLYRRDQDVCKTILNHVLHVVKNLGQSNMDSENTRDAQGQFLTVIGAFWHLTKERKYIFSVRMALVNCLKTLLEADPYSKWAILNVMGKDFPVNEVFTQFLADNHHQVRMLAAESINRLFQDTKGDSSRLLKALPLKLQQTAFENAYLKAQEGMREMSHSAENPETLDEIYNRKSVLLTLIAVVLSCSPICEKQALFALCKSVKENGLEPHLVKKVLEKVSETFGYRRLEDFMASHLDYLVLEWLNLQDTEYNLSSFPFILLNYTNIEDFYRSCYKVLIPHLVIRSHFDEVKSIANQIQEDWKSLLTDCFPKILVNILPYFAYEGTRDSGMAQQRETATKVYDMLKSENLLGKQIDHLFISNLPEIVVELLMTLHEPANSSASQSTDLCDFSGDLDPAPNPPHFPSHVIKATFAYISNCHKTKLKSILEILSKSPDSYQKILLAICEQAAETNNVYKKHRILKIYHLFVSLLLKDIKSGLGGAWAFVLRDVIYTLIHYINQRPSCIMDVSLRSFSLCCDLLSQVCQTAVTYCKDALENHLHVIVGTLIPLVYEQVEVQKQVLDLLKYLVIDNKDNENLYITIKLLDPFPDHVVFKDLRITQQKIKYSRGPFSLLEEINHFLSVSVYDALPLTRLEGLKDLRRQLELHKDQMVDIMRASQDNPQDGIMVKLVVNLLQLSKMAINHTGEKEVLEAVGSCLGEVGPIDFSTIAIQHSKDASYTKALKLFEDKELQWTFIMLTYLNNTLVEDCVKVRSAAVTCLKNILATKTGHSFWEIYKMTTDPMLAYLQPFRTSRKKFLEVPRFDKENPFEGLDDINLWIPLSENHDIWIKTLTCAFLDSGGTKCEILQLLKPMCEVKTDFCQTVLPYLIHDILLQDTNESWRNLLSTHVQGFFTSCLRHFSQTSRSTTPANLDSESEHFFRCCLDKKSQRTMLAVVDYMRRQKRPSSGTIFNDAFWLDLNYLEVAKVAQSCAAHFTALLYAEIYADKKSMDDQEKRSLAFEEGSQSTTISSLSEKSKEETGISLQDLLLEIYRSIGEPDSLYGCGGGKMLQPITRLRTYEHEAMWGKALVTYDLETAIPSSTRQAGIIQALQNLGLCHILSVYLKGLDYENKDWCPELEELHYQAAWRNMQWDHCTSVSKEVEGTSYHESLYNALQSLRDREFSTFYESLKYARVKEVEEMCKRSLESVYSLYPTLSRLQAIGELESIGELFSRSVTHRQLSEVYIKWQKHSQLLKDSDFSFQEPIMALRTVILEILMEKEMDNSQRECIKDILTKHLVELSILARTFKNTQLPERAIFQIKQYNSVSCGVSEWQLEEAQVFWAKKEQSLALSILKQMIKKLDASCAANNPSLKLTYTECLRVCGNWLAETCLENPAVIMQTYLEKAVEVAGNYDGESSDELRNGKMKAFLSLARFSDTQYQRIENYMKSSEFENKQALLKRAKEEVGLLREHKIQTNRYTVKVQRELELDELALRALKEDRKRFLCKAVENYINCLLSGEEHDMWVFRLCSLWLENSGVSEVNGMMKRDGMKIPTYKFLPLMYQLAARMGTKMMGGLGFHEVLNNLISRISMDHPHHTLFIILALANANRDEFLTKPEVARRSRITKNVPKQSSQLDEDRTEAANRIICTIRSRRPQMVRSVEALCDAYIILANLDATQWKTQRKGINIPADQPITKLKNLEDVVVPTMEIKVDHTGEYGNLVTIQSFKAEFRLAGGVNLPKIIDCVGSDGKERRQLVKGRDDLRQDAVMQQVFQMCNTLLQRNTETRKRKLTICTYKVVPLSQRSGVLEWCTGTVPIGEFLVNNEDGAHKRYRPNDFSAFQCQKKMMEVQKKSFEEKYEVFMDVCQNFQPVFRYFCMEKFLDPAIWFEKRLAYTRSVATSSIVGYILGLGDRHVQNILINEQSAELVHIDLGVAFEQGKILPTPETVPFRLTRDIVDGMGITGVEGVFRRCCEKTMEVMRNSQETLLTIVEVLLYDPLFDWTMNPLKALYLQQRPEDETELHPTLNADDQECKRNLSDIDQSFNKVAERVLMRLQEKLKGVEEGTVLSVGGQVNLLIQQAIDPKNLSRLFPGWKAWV
Protocol: Inhibition of ATM was evaluated in SN38 treated HT-29 cells (ATCC, Cat #HTB-38) by high-Content Imaging System
HT-29 cells were trypsinized and approximately 10,000 cells were seeded per well to 96-well microplates which were incubated overnight at 37° C. and 5% CO2. Test compounds were added to the 96-well plates which were incubated at 37° C. and 5% CO2 for 1 hour. […] After the plates were rinsed 3 times with PBSA, 50 μl permeabilization buffer (0.1% Triton-X 100 in PBSA) was added and the plates were incubated for 20 minutes at room temperature. After the plates were rinsed once with PBSA, 50 μl primary antibody solution was added and the plates were incubated in at 4° C. overnight. […] The plates were rinsed with PBST 3 times and then 100 μl PBSA were added per well. The plates were sealed with black plate seals.

PIK3Cδ = PIK3Cδ (Homo sapiens (Human), UniProt O00329); experiment: PI3K biochemical potency assay (PI3Kδ)
Protocol: as §1

ATM = ATM (Homo sapiens (Human), UniProt Q13315); experiment: ATM biochemical potency assay
Chain of ATM (Q13315 whole entry, looked up): as above
Protocol: The plate was incubated at room temperature for 10 minutes. […] Data was collected by Caliper.

ATR = ATR (Homo sapiens (Human), UniProt Q13535); experiment: ATR biochemical potency assay
Protocol: ATR enzyme was made by ChemPartner (batch: CP-ATR-20161102-M2). 2× enzyme solutions were prepared in 1× kinase base buffer. 10 μl of 2× enzyme solution (final concentration: 2.5 nM) was added to each well of the 384-well assay plate containing 60 nl compound in each well. The plate was incubated at room temperature for 10 minutes. 2× peptide solutions were prepared with FAM-labeled peptide and ATP in the 1× kinase base buffer. 10 μl of 2× peptide solution was added to each well of the 384-well assay plate, which was incubated at 28° C. for 240 min. 40 μl of stop buffer was added to stop reaction. Data were collected by Caliper.

mTOR = mTOR (Homo sapiens (Human), UniProt P42345); experiment: mTOR biochemical potency assay
Protocol: Solution of mTOR enzymes (Millipore, Cat. No. 14-770, Lot. No. 2052551) was prepared in 1× kinase buffer at 4-fold of the final concentration (final concentration: 6 nM) in the assay. 2.5 μl of kinase solution was added to each well of the 384-well assay plate, which contains 2.5 μl of compounds with serially diluted concentration. 2× substrate solution was prepared with ULight-4E-BP1 (Thr37/46) Peptide (PE, Cat. No. TRF0128-M, Lot. No. 1695274) and ATP in 1× kinase reaction buffer at 2-fold of the final concentration of each reagent in the assay. 5 μl of substrate solution was added to each well of the assay plate to start reaction. The assay plate was incubated at room temperature for 30 minutes. Detection solution of kinase quench buffer (EDTA) and Eu-anti-phospho-4E-BP1 antibody (Thr37/46) (PE, Cat. No. TRF0216-M, Lot. No. 1571838) were prepared at 2-fold the desired final concentrations of each reagent in Lance detection buffer. 10 μl of detection solution buffer was added to each well of the assay plate. The assay plate was equilibrated for 60 minutes at room temperature before read on a plate reader (Lance signal (665 nm) from Envision program).

PIK3Cβ (p110β) = PIK3Cβ (p110β) (Homo sapiens (Human), UniProt P42338); experiment: PI3K biochemical potency assay (PI3Kβ)
Protocol: as §1

[2] = cited from earlier work; for clearance as % liver blood flow: humans
aldehyde oxidase (AO) [3] = target: T1, aldehyde oxidase (AO) (Homo sapiens (Human), UniProt Q06278); experiment: Aldehyde oxidase assay in human liver cytosol; conditions: human liver cytosol 1 mg/mL, 0.5 μM compound
aldehyde oxidase (AO) [4] = target: T1, aldehyde oxidase (AO); experiment: in vitro; conditions: human liver cytosol
P-glycoprotein (Pgp) = P-glycoprotein (Pgp) (Homo sapiens (Human), UniProt P08183); experiment: MDCK-MDR1 Pgp assessment
Protocol: Efflux transport mediated by P-glycoprotein (Pgp) was assessed by MDCK-MDR1 cells. The final concentrations of test compounds and control compound were at 1 μM. The multiwell insert plate was incubated at 37° C. for 2 hours.

hERG channel = hERG channel (Homo sapiens (Human), UniProt Q12809); experiment: hERG safety assessment, manual patch clamp; conditions: for hERG inhibition @10 μM: HEK 293 cells stably expressing hERG
Protocol: Inhibition of hERG channel was conducted in HEK 293 cell line stably expressing hERG channel by manual patch clamp.

BCRP = BCRP (Homo sapiens (Human), UniProt Q9UNQ0); experiment: Caco-2 BCRP assessment; type: in vitro ADME; conditions: −inhibitor/+inhibitor (novobiocin 30 μM)
Chain of BCRP (Q9UNQ0 whole entry): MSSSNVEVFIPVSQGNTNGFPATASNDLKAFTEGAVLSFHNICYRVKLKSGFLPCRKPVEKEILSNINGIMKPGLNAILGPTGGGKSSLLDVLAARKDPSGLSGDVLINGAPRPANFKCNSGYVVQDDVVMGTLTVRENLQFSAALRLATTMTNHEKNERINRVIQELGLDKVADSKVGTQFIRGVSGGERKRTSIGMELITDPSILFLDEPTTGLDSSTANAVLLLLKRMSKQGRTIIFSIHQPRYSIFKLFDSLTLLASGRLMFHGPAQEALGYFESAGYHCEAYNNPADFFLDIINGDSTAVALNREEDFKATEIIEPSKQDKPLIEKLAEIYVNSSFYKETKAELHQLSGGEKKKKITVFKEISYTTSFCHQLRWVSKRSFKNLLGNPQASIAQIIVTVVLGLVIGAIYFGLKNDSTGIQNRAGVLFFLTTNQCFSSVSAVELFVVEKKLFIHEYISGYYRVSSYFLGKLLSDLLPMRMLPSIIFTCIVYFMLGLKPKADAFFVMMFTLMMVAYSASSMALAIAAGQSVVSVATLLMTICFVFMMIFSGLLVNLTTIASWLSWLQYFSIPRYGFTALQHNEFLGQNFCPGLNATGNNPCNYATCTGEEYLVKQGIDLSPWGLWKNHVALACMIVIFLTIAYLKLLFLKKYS
Excerpt: Caco-2 cells was used to study efflux transport mediated by BCRP.

In the case of `CC(C)n1c(=O)n(C)c2nnc3cc(F)c(-c4ccc(OCCCN5CC6CC6C5)nc4)cc3c21` (stereo not drawn) [Example 16, 8-(6-(3-(3-azabicyclo[3.1.0]hexan-3-yl)propoxy)pyridin-3-yl)-7-fluoro-1-isopropyl-3-methyl-1H-imidazo[4,5-c]cinnolin-2(3H)-one], the IC50 (PI3Kα (p110α/p85a)) is reported as over 10 µM, the IC50 (PIK3Cγ (pp110γ)) is reported as over 10 µM and the IC50 [1] is reported as 0.0185 µM. For the same compound, the IC50 (PIK3Cδ) was over 10 µM, the IC50 (ATM) was over 1 µM and the IC50 (ATR) was over 10 µM. For the same compound, the IC50 (mTOR) was over 10 µM and the IC50 (PIK3Cβ (p110β)) was over 10 µM.
For `OCCn1cc(-c2cnc3nnn(Cc4ccc5ncccc5c4)c3n2)cn1` [Ref. Comp. 5, 2-[4-[3-(quinolin-6-ylmethyl)triazolo[4,5-b]pyrazin-5-yl]pyrazol-1-yl]ethanol], the clearance in humans [2] is listed as 6 mL/min/kg and the “clearance as % liver blood flow” value [2] is listed as about 30 % liver blood flow.
With `CC(C)n1c(=O)n(C)c2nnc3cc(F)c(-c4ccc(COCCN(C)C)nc4)cc3c21` [Example 6, 8-(6-((2-(dimethylamino)ethoxy)methyl)pyridin-3-yl)-7-fluoro-1-isopropyl-3-methyl-1H-imidazo[4,5-c]cinnolin-2(3H)-one] the IC50 (PI3Kα (p110α/p85a)) was over 10 µM, the IC50 (PIK3Cγ (pp110γ)) was over 10 µM and the IC50 [1] was 0.071 µM. It also gave an IC50 (PIK3Cδ) of over 10 µM, an IC50 (ATM) of 0.1 µM and an IC50 (ATR) of over 10 µM. The IC50 (mTOR) was over 10 µM and the IC50 (PIK3Cβ (p110β)) was over 10 µM.
In the case of `CCN(C(C)=O)c1cccc(-c2ccnc3c(C#N)cnn23)c1` [Ref. Comp. 4, N-[3-(3-cyanopyrazolo[1,5-a]pyrimidin-7-yl)phenyl]-N-ethylacetamide], the “clearance as % liver blood flow” value [2] is listed as about 80 % liver blood flow, the AO intrinsic clearance (aldehyde oxidase (AO) [3]) is listed as 3.1 μL/min/mg protein and the microsomal CLint at 0.5 μM (aldehyde oxidase (AO) [4]) is listed as 3.1 µL/min/mg.
With `CC(C)n1c(=O)n(C)c2cnc3cc(F)c(-c4ccc(OCCCN5CCCCC5)nc4)cc3c21` [Ref. Comp. 3, AZD1390] the “Pgp substrate (in words)” value (P-glycoprotein (Pgp)) was “not a Pgp substrate”, the “hERG liability (in words)” value (hERG channel) was “significant hERG inhibition” and the “hERG inhibition @10 μM” value (hERG channel) was 79%.
Work on `CC(C)n1c(=O)n(C)c2nnc3cc(F)c(-c4ccc(COCCN5CCCCC5)nc4)cc3c21` [Example 7, 7-fluoro-1-isopropyl-3-methyl-8-(6-((2-(piperidin-1-yl)ethoxy)methyl)pyridin-3-yl)-1H-imidazo[4,5-c]cinnolin-2(3H)-one] yielded an IC50 (PI3Kα (p110α/p85a)) of over 10 µM, an IC50 (PIK3Cγ (pp110γ)) of over 10 µM and an IC50 [1] of 0.274 µM. The IC50 (PIK3Cδ) was over 10 µM, the IC50 (ATM) was 0.026 µM and the IC50 (ATR) was over 10 µM. It also gave an IC50 (mTOR) of over 10 µM and an IC50 (PIK3Cβ (p110β)) of over 10 µM.
For `CN(C)CCCOc1ccc(-c2ccc3nnc4c(c3c2)n(C2CCOCC2)c(=O)n4C)cn1` [compound 1, 8-[6-(3-dimethylamino-propoxy)-pyridin-3-yl]-3-methyl-1-(tetrahydro-2H-pyran-4-yl)-1H-imidazo[4,5-c]cinnolin-2(3H)-one], the efflux ratio at 2 h, 1 μM (BCRP) was 0.62, the IC50 [1] was 0.112 µM and the IC50 (ATM) was 0.0029 µM. The efflux ratio at 2 h, 1 μM (P-glycoprotein (Pgp); human) was 5.6 and the “hERG inhibition @10 μM” value (hERG channel) was 58%.
Compound `CC(C)n1c(=O)n(C)c2nnc3cc(F)c(-c4ccc(OCCCN5CCCC5)nc4)cc3c21` [Example 3, 7-fluoro-1-isopropyl-3-methyl-8-(6-(3-(pyrrolidin-1-yl)propoxy)pyridin-3-yl)-1H-imidazo[4,5-c]cinnolin-2(3H)-one] has an IC50 (PI3Kα (p110α/p85a)) of over 10 µM, an IC50 (PIK3Cγ (pp110γ)) of over 10 µM and an IC50 [1] of 0.011 µM. For the same compound, the IC50 (PIK3Cδ) was over 10 µM, the IC50 (ATM) was 0.0048 µM and the IC50 (ATR) was over 10 µM. For the same compound, the IC50 (mTOR) was over 10 µM and the IC50 (PIK3Cβ (p110β)) was over 10 µM.
